Patent US20210255193A1, “LYSINE REACTIVE PROBES AND USES THEREOF” (The Scripps Research Institute, priority 2017, published 2021)

Tests used:
Experiment in all cases: competitive isoTOP-ABPP
Type in all cases: binding
TTR Transthyretin = target: T1, TTR Transthyretin (Homo sapiens, UniProt P02766); settings: for isoTOP-ABPP ratio (R) at liganded lysine P02766_K35: 50 uM, in vitro, sol, 231
T1 construct: isoTOP-ABPP experiments performed in cell lysates (in vitro); endogenous in cells; host or cells: MDA-MB-231 soluble lysate
Method in brief: (§1)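 Here, isoTOP-ABPP measures loss of STP-alkyne labeling at individual lysines after fragment exposure in lysate. Activated esters are dosed at 50 μM, guanidinylating agents at 100 μM; the probe follows at 0.1 mM for 1 h. R ≥4 marks a liganded lysine.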

[1] = target: T2, NLN Neurolysin, mitochondrial (Homo sapiens, UniProt Q9BYT8); settings: for isoTOP-ABPP ratio (R) at liganded lysine Q9BYT8_K253: 50 uM, in vitro, sol, 231
T2 construct: isoTOP-ABPP experiments performed in cell lysates (in vitro); endogenous in cells; host or cells: soluble proteome of human cancer cell lines (MDA-MB-231; Ramos and Jurkat also prepared)
T2 sequence (Q9BYT8 38-704): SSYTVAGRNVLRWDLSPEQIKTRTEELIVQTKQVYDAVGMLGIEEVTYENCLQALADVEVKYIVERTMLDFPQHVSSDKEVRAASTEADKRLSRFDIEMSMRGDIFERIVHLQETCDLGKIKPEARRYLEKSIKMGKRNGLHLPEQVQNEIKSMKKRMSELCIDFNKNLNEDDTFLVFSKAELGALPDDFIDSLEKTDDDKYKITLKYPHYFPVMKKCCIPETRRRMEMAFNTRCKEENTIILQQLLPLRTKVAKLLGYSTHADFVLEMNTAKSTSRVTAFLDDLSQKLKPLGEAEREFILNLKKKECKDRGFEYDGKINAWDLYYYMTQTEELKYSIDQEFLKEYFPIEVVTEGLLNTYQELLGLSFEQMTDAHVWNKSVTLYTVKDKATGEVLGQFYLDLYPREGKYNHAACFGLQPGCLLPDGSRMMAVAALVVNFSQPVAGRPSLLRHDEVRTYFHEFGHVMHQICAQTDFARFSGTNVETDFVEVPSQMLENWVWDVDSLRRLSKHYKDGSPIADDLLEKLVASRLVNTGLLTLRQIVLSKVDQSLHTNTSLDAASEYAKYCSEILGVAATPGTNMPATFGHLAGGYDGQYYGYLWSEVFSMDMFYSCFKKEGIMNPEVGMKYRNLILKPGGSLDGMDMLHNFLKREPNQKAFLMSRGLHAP
Method in brief: as §1

[2] = target: T3, DNMT1 DNA (cytosine-5)-methyltransferase 1 (Homo sapiens, UniProt P26358)
T3 construct: isoTOP-ABPP experiments performed in cell lysates (in vitro); endogenous in cells; host or cells: soluble proteome of human cancer cell lines (MDA-MB-231; Ramos and Jurkat also prepared)
T3 sequence (P26358 whole entry): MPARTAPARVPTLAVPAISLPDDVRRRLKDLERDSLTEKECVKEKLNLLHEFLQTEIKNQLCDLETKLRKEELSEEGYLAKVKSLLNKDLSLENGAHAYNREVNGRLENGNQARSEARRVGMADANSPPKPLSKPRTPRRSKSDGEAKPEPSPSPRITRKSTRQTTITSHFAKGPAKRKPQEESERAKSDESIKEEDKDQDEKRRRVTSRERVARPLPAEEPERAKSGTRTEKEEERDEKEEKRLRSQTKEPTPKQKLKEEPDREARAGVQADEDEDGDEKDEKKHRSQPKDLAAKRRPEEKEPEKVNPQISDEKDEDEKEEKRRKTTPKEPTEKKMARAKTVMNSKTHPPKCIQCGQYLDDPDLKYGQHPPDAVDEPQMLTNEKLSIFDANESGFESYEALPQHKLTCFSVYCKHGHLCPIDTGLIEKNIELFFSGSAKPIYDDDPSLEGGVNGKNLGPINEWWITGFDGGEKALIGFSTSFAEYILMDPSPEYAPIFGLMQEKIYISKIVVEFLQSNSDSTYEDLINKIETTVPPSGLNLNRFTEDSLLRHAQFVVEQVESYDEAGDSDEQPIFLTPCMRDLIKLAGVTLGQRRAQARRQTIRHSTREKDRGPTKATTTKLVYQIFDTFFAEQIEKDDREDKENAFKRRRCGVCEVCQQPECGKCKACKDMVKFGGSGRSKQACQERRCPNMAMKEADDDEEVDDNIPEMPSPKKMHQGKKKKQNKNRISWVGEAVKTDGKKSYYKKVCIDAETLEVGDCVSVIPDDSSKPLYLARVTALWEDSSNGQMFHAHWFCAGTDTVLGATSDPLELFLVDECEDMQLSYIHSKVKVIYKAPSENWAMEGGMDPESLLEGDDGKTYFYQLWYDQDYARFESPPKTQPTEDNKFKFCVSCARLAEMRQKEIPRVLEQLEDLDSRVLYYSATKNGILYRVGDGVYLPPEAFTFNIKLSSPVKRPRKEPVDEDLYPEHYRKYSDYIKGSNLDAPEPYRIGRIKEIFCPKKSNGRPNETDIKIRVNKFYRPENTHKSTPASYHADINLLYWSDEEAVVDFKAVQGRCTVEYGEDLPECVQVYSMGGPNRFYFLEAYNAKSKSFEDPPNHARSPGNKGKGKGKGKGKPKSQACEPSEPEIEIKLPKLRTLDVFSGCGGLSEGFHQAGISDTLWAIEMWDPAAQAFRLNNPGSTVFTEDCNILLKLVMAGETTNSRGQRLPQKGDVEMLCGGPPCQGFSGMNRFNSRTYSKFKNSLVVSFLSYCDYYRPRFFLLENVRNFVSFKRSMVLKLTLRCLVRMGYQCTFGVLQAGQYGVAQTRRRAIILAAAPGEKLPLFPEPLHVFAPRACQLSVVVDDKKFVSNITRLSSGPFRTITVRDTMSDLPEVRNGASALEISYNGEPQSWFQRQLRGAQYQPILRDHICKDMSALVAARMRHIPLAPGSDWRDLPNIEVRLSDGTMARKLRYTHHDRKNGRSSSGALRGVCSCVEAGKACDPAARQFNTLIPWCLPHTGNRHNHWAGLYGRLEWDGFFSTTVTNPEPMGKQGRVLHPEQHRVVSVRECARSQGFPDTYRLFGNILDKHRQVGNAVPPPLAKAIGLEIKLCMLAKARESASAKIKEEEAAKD
Method in brief: as §1

[3] = target: T4, ATP6V1F V-type proton ATPase subunit F (Homo sapiens, UniProt Q16864); settings: for isoTOP-ABPP ratio (R) at liganded lysine Q16864_K6: 50 uM, in vitro, sol, 231
T4 construct: isoTOP-ABPP experiments performed in cell lysates (in vitro); endogenous in cells; host or cells: soluble proteome of human cancer cell lines (MDA-MB-231; Ramos and Jurkat also prepared)
T4 sequence (Q16864 whole entry): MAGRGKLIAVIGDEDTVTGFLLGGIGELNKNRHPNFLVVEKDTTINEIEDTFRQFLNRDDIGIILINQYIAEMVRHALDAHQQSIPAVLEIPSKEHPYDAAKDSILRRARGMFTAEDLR
Method in brief: as §1

[4] = target: T5, SOD2 Superoxide dismutase (Homo sapiens, UniProt P04179); settings: for isoTOP-ABPP ratio (R) at liganded lysine P04179_K68: 50 uM, in vitro, sol, 231
T5 construct: isoTOP-ABPP experiments performed in cell lysates (in vitro); endogenous in cells; host or cells: MDA-MB-231 soluble lysate
T5 sequence (P04179 25-222): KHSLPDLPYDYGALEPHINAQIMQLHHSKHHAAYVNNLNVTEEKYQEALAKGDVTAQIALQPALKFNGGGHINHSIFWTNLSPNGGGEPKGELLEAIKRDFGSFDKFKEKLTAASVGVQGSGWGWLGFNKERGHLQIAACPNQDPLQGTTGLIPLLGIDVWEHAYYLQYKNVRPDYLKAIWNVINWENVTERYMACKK
Method in brief: as §1

[5] = target: T6, FH Fumarate hydratase, mitochondrial (Homo sapiens, UniProt P07954); settings: 50 uM_231_sol_in vitro
T6 construct: isoTOP-ABPP experiments performed in cell lysates (in vitro); endogenous in cells; host or cells: MDA-MB-231 soluble lysate
T6 sequence (P07954 45-510): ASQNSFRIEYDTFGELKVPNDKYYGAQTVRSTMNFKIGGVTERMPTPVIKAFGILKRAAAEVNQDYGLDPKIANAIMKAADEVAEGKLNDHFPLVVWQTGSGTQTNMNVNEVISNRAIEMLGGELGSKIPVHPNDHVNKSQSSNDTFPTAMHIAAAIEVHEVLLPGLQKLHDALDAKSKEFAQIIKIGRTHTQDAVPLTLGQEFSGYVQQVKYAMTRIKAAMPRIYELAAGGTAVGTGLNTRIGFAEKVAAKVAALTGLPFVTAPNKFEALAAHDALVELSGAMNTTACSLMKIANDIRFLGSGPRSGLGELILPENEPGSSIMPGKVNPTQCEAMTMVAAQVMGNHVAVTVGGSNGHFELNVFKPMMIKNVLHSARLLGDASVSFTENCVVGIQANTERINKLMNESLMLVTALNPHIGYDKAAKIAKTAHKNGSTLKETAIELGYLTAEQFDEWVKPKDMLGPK
Method in brief: as §1

O=C(Oc1ccc([N+](=O)[O-])cc1[N+](=O)[O-])c1ccc2ccccc2n1 [fragment 35, 2,4-Dinitrophenyl quinoline-2-carboxylate]
isoTOP-ABPP ratio (R) at liganded lysine P02766_K35 (TTR Transthyretin): 15.6
isoTOP-ABPP ratio (R) at liganded lysine Q9BYT8_K253 [1]: 1.1

O=C(CCc1coc2cc(F)ccc2c1=O)Oc1ccc([N+](=O)[O-])cc1[N+](=O)[O-] [fragment 36, 2,4-Dinitrophenyl 3-(7-fluoro-4-oxo-4H-chromen-3-yl)propanoate]
isoTOP-ABPP ratio (R) at liganded lysine P02766_K35 (TTR Transthyretin): 2.4
isoTOP-ABPP ratio (R) at liganded lysine P26358_K45 ([2]; 50 uM, in vitro, sol, 231): 0.8
isoTOP-ABPP ratio (R) at liganded lysine Q16864_K6 [3]: 1.0
isoTOP-ABPP ratio (R) at liganded lysine P04179_K68 [4]: 2.1

O=C(CC12CC3CC(CC(C3)C1)C2)Oc1ccc([N+](=O)[O-])cc1[N+](=O)[O-] [fragment 38, 2,4-Dinitrophenyl 2-(adamantan-1-yl)acetate]
isoTOP-ABPP ratio (R) at liganded lysine P02766_K35 (TTR Transthyretin): 1.2
isoTOP-ABPP ratio (R) at liganded lysine Q16864_K6 [3]: 1.0
isoTOP-ABPP ratio (R) at liganded lysine Q9BYT8_K253 [1]: 0.8

O=C(Oc1ccc([N+](=O)[O-])cc1[N+](=O)[O-])c1ccccc1Nc1cccc(C(F)(F)F)c1 [fragment 40, 2,4-Dinitrophenyl 2-((3-(trifluoromethyl)phenyl)amino)benzoate]
isoTOP-ABPP ratio (R) at liganded lysine Q16864_K6 [3]: 0.9
isoTOP-ABPP ratio (R) at liganded lysine Q9BYT8_K253 [1]: 0.9

O=C(Oc1ccc([N+](=O)[O-])cc1[N+](=O)[O-])C(c1ccccc1)(c1ccccc1)c1ccccc1 [fragment 42, 2,4-Dinitrophenyl 2,2,2-triphenylacetate]
isoTOP-ABPP ratio (R) at liganded lysine P02766_K35 (TTR Transthyretin): 1.0
isoTOP-ABPP ratio (R) at liganded lysine Q16864_K6 [3]: 1.0
isoTOP-ABPP ratio (R) at liganded lysine Q9BYT8_K253 [1]: 0.8

CC(=O)Oc1ccc([N+](=O)[O-])cc1[N+](=O)[O-] [fragment 43, 2,4-Dinitrophenyl acetate]
isoTOP-ABPP ratio (R) at liganded lysine Q16864_K6 [3]: 20.0
isoTOP-ABPP ratio (R) at liganded lysine Q9BYT8_K253 [1]: 0.8
isoTOP-ABPP ratio (R) at liganded lysine P04179_K68 [4]: 1.4

N#Cc1ccc(C(=O)Oc2ccc([N+](=O)[O-])cc2[N+](=O)[O-])cc1 [fragment 44, 2,4-Dinitrophenyl 4-cyanobenzoate]
isoTOP-ABPP ratio, lysine P02766_K35 (TTR Transthyretin; 50 uM_231_sol_in vitro): 20.0
isoTOP-ABPP ratio, lysine P26358_K45 ([2]; 50 uM_231_sol_in vitro): 0.7
isoTOP-ABPP ratio, lysine Q16864_K6 ([3]; 50 uM_231_sol_in vitro): 1.2
isoTOP-ABPP ratio, lysine P04179_K68 ([4]; 50 uM_231_sol_in vitro): 1.6

O=C(ON1C(=O)CCC1=O)c1cc(C(F)(F)F)cc(C(F)(F)F)c1 [fragment 46, 3,5-Bis(trifluoromethyl)benzoic acid NHS ester]
isoTOP-ABPP ratio, lysine P02766_K35 (TTR Transthyretin; 50 uM_231_sol_in vitro): 2.3
isoTOP-ABPP ratio, lysine P26358_K45 ([2]; 50 uM_231_sol_in vitro): 2.4
isoTOP-ABPP ratio, lysine Q16864_K6 ([3]; 50 uM_231_sol_in vitro): 20.0
isoTOP-ABPP ratio, lysine Q9BYT8_K253 ([1]; 50 uM_231_sol_in vitro): 1.5
isoTOP-ABPP ratio, lysine P04179_K68 ([4]; 50 uM_231_sol_in vitro): 0.9

O=C(Oc1c(F)c(F)c(C(F)(F)F)c(F)c1F)c1cc(C(F)(F)F)cc(C(F)(F)F)c1 [fragment 47, 2,3,5,6-Tetrafluoro-4-(trifluoromethyl)phenyl 3,5-bis(trifluoromethyl)benzoate]
isoTOP-ABPP ratio, lysine P02766_K35 (TTR Transthyretin; 50 uM_231_sol_in vitro): 1.6
isoTOP-ABPP ratio, lysine P07954_K311 [5]: 1.4

O=C(Oc1c(F)c(F)cc(F)c1F)c1cc(C(F)(F)F)cc(C(F)(F)F)c1 [fragment 48, 2,3,5,6-Tetrafluorophenyl 3,5-bis(trifluoromethyl)benzoate]
isoTOP-ABPP ratio, lysine P26358_K45 ([2]; 50 uM_231_sol_in vitro): 1.1

COC(=O)NC(=NC(=O)OCC1c2ccccc2-c2ccccc21)n1cccn1 [fragment 49, N-Methoxycarbonyl-N′-9-fluorenylmethoxycarbonyl-pyrazole-1-carboxamidine]
isoTOP-ABPP ratio, lysine P26358_K45 ([2]; 100 uM_231_sol_in vitro): 1.3
isoTOP-ABPP ratio, lysine Q16864_K6 ([3]; 100 uM_231_sol_in vitro): 1.3
isoTOP-ABPP ratio, lysine P04179_K68 ([4]; 100 uM_231_sol_in vitro): 3.3

CC(C)(C)OC(=O)N=C(NC(=O)OC(C)(C)C)n1cccn1 [fragment 50, reference compound]
isoTOP-ABPP ratio, lysine P02766_K35 (TTR Transthyretin; 100 uM_231_sol_in vitro): 2.1
isoTOP-ABPP ratio, lysine Q16864_K6 ([3]; 100 uM_231_sol_in vitro): 1.4
isoTOP-ABPP ratio, lysine Q9BYT8_K253 ([1]; 100 uM_231_sol_in vitro): 1.2

NC(=O)c1cc(C(F)(F)F)cc(C(F)(F)F)c1 [fragment 51, reference compound]
isoTOP-ABPP ratio, lysine P04179_K68 ([4]; 50 uM_231_sol_in vitro): 0.9
isoTOP-ABPP ratio, lysine P07954_K311 [5]: 1.0
